US5635391A, “Isolated DNA encoding a nitrilase polypeptide, hosts containing, and expression thereof optionally assisted by a E. coli GroE chaperone polypeptide” (priority 1992, dated 1997)

Test system: E. coli (pXL2087)
Test: Batch hydrolysis of adiponitrile with E. coli (pXL2087) in suspension
Type: cell-based
Settings: pH 7, 25° C., cells 21 g/l
Description: 120 μl or 1068 μmol of adiponitrile were added at 25° C. and with magnetic stirring, at the reaction times 0, 1, 2, 3, 5, 6 and 7 h, to an initial volume of 5 ml of 50 mM phosphate buffer, pH 7, containing the strain E. coli (pXL2087) at an initial concentration of 21 g/l. The reaction was monitored analytically by taking 100 μl samples of the reaction volume every hour.
The mean activities calculated over 30 min after addition of the adiponitrile are collated in Table 6 below.

SMILES: N#CCCCCC#N [Adiponitrile, adiponitrile]
- SPECIFIC ACTIVITY (mean over 30 min after addition of adiponitrile) (reaction time 0.5 h): 16 μmol of adipate/h x mg of dry cells
- SPECIFIC ACTIVITY (mean over 30 min after addition of adiponitrile) (reaction time 2.5 h): 15 μmol of adipate/h x mg of dry cells
- SPECIFIC ACTIVITY (mean over 30 min after addition of adiponitrile) (reaction time 5.5 h): 11 μmol of adipate/h x mg of dry cells
- SPECIFIC ACTIVITY (mean over 30 min after addition of adiponitrile) (reaction time 6.5 h): 11 μmol of adipate/h x mg of dry cells
- SPECIFIC ACTIVITY (mean over 30 min after addition of adiponitrile) (reaction time 7.7 h): 15 μmol of adipate/h x mg of dry cells
